Molecular target: T1, Thymidine phosphorylase (Escherichia coli (strain SMS-3-5 / SECEC), UniProt B1LEI7)
T1 sequence (B1LEI7 whole entry): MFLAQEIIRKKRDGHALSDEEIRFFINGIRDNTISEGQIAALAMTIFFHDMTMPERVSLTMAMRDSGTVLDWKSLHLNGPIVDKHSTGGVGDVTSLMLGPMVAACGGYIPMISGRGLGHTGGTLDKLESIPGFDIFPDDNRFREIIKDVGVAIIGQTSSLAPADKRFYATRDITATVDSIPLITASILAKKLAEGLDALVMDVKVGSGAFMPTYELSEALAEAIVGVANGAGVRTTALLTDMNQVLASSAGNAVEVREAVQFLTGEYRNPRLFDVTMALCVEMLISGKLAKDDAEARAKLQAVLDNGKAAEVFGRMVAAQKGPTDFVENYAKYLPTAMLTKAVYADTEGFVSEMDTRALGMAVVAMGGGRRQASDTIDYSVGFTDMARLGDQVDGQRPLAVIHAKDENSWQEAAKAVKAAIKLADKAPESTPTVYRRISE
Assay: Thymidine Phosphorylase Inhibition Assay
Settings: pH 7
Method: TP inhibition assay was performed spectrophotometrically. The method of Bera et al. was followed with slight modifications. Reaction mixture of 200 µL, contained 20 µL of enzyme (0.058 unit/well), 150 µL of potassium phosphate buffer (pH 7.0, 50 mM), and 10 µL of test compound (0.5 mM). The reaction mixture was then incubated for 10 min at 30 °C. […] Every experiment was run in triplicate. 7-Deazaxanthine was used as positive control.

Row | IC50 [µM] | SMILES
1 | 234 | O=c1[nH]c(-c2ccc(O)cc2)nc2ccccc12
2 | 295 | O=c1[nH]c(-c2cccc(O)c2)nc2ccccc12
3 | 169 | COc1ccc(-c2nc3ccccc3c(=O)[nH]2)cc1O
4 | 256 | CCOc1cc(-c2nc3ccccc3c(=O)[nH]2)ccc1O
5 | 42.9 | O=c1[nH]c(-c2ccc(O)c(O)c2)nc2ccccc12
6 | 59.5 | O=c1[nH]c(-c2cc(O)ccc2O)nc2ccccc12
